Results reported in PubChem BioAssay (NCI).
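Briefly, cells in 96-well plates were exposed to five compound concentrations for 48 h, and endpoints were estimated by linear interpolation. GI50 = concentration required for 50% inhibition of growth. The concentration for full growth arrest is given as TGI.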

What was measured:
Test in all cases: DTP human tumour cell line panel, 48 h
A498 renal = system: A498 renal
A549 NSCLC = system: A549 NSCLC
ACHN renal = system: ACHN renal
BT-549 breast = system: BT-549 breast
CAKI-1 renal = system: CAKI-1 renal
CCRF-CEM leukemia = system: CCRF-CEM leukemia
COLO 205 colon = system: COLO 205 colon
DU-145 prostate = system: DU-145 prostate
EKVX NSCLC = system: EKVX NSCLC
HCC-2998 colon = system: HCC-2998 colon
HCT-116 colon = system: HCT-116 colon
HCT-15 colon = system: HCT-15 colon
HL-60(TB) leukemia = system: HL-60(TB) leukemia
HOP-62 NSCLC = system: HOP-62 NSCLC
HOP-92 NSCLC = system: HOP-92 NSCLC
HS 578T breast = system: HS 578T breast
HT29 colon = system: HT29 colon
IGROV1 ovarian = system: IGROV1 ovarian
K-562 leukemia = system: K-562 leukemia
KM12 colon = system: KM12 colon
LOX IMVI melanoma = system: LOX IMVI melanoma
MALME-3M melanoma = system: MALME-3M melanoma
MCF7 breast = system: MCF7 breast
MDA-MB-231 breast = system: MDA-MB-231 breast
MDA-MB-435 = system: MDA-MB-435
MOLT-4 leukemia = system: MOLT-4 leukemia
NCI-H226 lung = system: NCI-H226 lung
NCI-H23 lung = system: NCI-H23 lung
NCI-H460 lung = system: NCI-H460 lung
NCI-H522 lung = system: NCI-H522 lung
NCI/ADR-RES ovarian = system: NCI/ADR-RES ovarian
OVCAR-3 ovarian = system: OVCAR-3 ovarian
OVCAR-4 ovarian = system: OVCAR-4 ovarian
OVCAR-5 ovarian = system: OVCAR-5 ovarian
OVCAR-8 ovarian = system: OVCAR-8 ovarian
PC-3 prostate = system: PC-3 prostate
RPMI-8226 leukemia = system: RPMI-8226 leukemia
RXF 393 renal = system: RXF 393 renal
SF-268 CNS = system: SF-268 CNS
SF-295 CNS = system: SF-295 CNS
SF-539 CNS = system: SF-539 CNS
SK-MEL-2 melanoma = system: SK-MEL-2 melanoma
SK-MEL-28 melanoma = system: SK-MEL-28 melanoma
SK-MEL-5 melanoma = system: SK-MEL-5 melanoma
SK-OV-3 ovarian = system: SK-OV-3 ovarian
SN12C renal = system: SN12C renal
SNB-19 CNS = system: SNB-19 CNS
SNB-75 CNS = system: SNB-75 CNS
SR leukemia = system: SR leukemia
SW-620 colon = system: SW-620 colon
T-47D breast = system: T-47D breast
TK-10 renal = system: TK-10 renal
U251 CNS = system: U251 CNS
UACC-257 melanoma = system: UACC-257 melanoma
UACC-62 melanoma = system: UACC-62 melanoma

COc1cccc(C2SC(C)C(=O)N2CCc2cccs2)c1 (stereo not given)
GI50 (A498 renal): 1.25 µM | TGI (A498 renal): 10.5 µM | GI50 (A549 NSCLC): 3.39 µM | TGI (A549 NSCLC): 12.7 µM | GI50 (ACHN renal): 3.34 µM | TGI (ACHN renal): 13.8 µM | GI50 (BT-549 breast): 2.69 µM | TGI (BT-549 breast): 9.11 µM | GI50 (CAKI-1 renal): 2.07 µM | TGI (CAKI-1 renal): 10.5 µM | GI50 (CCRF-CEM leukemia): 3.01 µM | TGI (CCRF-CEM leukemia): 22.3 µM | GI50 (COLO 205 colon): 1.47 µM | TGI (COLO 205 colon): 2.82 µM | GI50 (DU-145 prostate): 3.95 µM | TGI (DU-145 prostate): 14.9 µM | GI50 (EKVX NSCLC): 1.49 µM | TGI (EKVX NSCLC): 10.7 µM | GI50 (HCC-2998 colon): 2.93 µM | TGI (HCC-2998 colon): 12.3 µM | GI50 (HCT-116 colon): 1.89 µM | TGI (HCT-116 colon): 8.36 µM | GI50 (HCT-15 colon): 2.75 µM | TGI (HCT-15 colon): 12.5 µM | GI50 (HL-60(TB) leukemia): 2.59 µM | TGI (HL-60(TB) leukemia): 7.49 µM | GI50 (HOP-62 NSCLC): 3.12 µM | TGI (HOP-62 NSCLC): 14.9 µM | GI50 (HOP-92 NSCLC): 1.16 µM | TGI (HOP-92 NSCLC): 4.37 µM | GI50 (HS 578T breast): 2.56 µM | TGI (HS 578T breast): 26.8 µM | GI50 (HT29 colon): 3.24 µM | TGI (HT29 colon): 12 µM | GI50 (IGROV1 ovarian): 2.01 µM | TGI (IGROV1 ovarian): 15.7 µM | GI50 (K-562 leukemia): 2.81 µM | TGI (K-562 leukemia): > 100 µM | GI50 (KM12 colon): 2.67 µM | TGI (KM12 colon): 8.99 µM | GI50 (LOX IMVI melanoma): 2.48 µM | TGI (LOX IMVI melanoma): 11.6 µM | GI50 (MALME-3M melanoma): 2.19 µM | TGI (MALME-3M melanoma): 8.09 µM | GI50 (MCF7 breast): 3.02 µM | TGI (MCF7 breast): 12.7 µM | GI50 (MDA-MB-231 breast): 2.72 µM | TGI (MDA-MB-231 breast): 13.9 µM | GI50 (MDA-MB-435): 2.16 µM | TGI (MDA-MB-435): 7.28 µM | GI50 (MOLT-4 leukemia): 2.34 µM | TGI (MOLT-4 leukemia): 10.7 µM | GI50 (NCI-H226 lung): 3.15 µM | TGI (NCI-H226 lung): 17.2 µM | GI50 (NCI-H23 lung): 2.62 µM | TGI (NCI-H23 lung): 12.1 µM | GI50 (NCI-H460 lung): 2.83 µM | TGI (NCI-H460 lung): 11 µM | GI50 (NCI-H522 lung): 1.71 µM | TGI (NCI-H522 lung): 5.15 µM | GI50 (NCI/ADR-RES ovarian): 2.6 µM | TGI (NCI/ADR-RES ovarian): 12.7 µM | GI50 (OVCAR-3 ovarian): 2.04 µM | TGI (OVCAR-3 ovarian): 7.6 µM | GI50 (OVCAR-4 ovarian): 2.25 µM | TGI (OVCAR-4 ovarian): 11.2 µM | GI50 (OVCAR-5 ovarian): 4.05 µM | TGI (OVCAR-5 ovarian): 20 µM | GI50 (OVCAR-8 ovarian): 3.49 µM | TGI (OVCAR-8 ovarian): 14.3 µM | GI50 (PC-3 prostate): 2.05 µM | TGI (PC-3 prostate): 8.65 µM | GI50 (RPMI-8226 leukemia): 1.88 µM | TGI (RPMI-8226 leukemia): 5.39 µM | GI50 (RXF 393 renal): 4.26 µM | TGI (RXF 393 renal): 16.4 µM | GI50 (SF-268 CNS): 2.72 µM | TGI (SF-268 CNS): 13 µM | GI50 (SF-295 CNS): 2.68 µM | TGI (SF-295 CNS): 11.2 µM | GI50 (SF-539 CNS): 3.6 µM | TGI (SF-539 CNS): 13.6 µM | GI50 (SK-MEL-2 melanoma): 2.77 µM | TGI (SK-MEL-2 melanoma): 11.5 µM | GI50 (SK-MEL-28 melanoma): 3.6 µM | TGI (SK-MEL-28 melanoma): 14 µM | GI50 (SK-MEL-5 melanoma): 1.58 µM | TGI (SK-MEL-5 melanoma): 2.96 µM | GI50 (SK-OV-3 ovarian): 2.95 µM | TGI (SK-OV-3 ovarian): 13.2 µM | GI50 (SN12C renal): 3.15 µM | TGI (SN12C renal): 13.5 µM | GI50 (SNB-19 CNS): 2.96 µM | TGI (SNB-19 CNS): 13.7 µM | GI50 (SNB-75 CNS): 3.2 µM | TGI (SNB-75 CNS): 15.7 µM | GI50 (SR leukemia): 2.5 µM | TGI (SR leukemia): 15.5 µM | GI50 (SW-620 colon): 3.48 µM | TGI (SW-620 colon): 15.7 µM | GI50 (T-47D breast): 1.78 µM | TGI (T-47D breast): 11.6 µM | GI50 (TK-10 renal): 2.79 µM | TGI (TK-10 renal): 11.7 µM | GI50 (U251 CNS): 3.1 µM | TGI (U251 CNS): 11.2 µM | GI50 (UACC-257 melanoma): 3.17 µM | TGI (UACC-257 melanoma): 10.3 µM | GI50 (UACC-62 melanoma): 1.76 µM | TGI (UACC-62 melanoma): 10.7 µM
